We go through 23 molecules from patent publication US7504508B2, “PGD2 receptor antagonists for the treatment of inflammatory diseases” (Millennium Pharmaceuticals, Inc., priority 2002, dated 2009).

This test addresses T1, cloned human CRTH2 receptor (Homo sapiens, UniProt Q9Y5Y4).
T1 construct: purchased Biosignal; host or cells: HEK-293 cells stably expressing human CRTH2 and G-alpha-16 (membranes)
T1 sequence (Q9Y5Y4 1-395): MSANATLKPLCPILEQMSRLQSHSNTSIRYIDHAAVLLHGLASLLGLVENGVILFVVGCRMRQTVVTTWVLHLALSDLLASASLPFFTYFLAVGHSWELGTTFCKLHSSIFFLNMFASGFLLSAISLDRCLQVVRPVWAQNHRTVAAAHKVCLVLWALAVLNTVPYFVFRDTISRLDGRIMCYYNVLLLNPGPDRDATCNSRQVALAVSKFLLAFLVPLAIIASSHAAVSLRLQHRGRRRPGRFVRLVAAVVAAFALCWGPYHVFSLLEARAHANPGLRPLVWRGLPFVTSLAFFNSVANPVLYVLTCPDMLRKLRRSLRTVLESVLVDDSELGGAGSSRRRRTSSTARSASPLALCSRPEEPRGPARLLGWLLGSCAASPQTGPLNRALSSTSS
The experiment in a line: Radioligand membrane binding assay: inhibition of [3H] PGD2 binding to CRTH2 (Scintillation Proximity Assay). As to conditions: inhibition of [3H] PGD2 binding to membranes of HEK-293 cells stably expressing human CRTH2; SPA; 10 point curve from 10 μM; room temperature, approximately 2 hours. On the procedure: This radioligand membrane binding assay evaluates the ability of compounds to inhibit [^3H] Prostaglandin D2 (PGD2) binding to the cloned human CRTH2 receptor stably expressed in HEK-293 cells (expressing human CRTh2 receptor and α subunit or the heteronimeric G protein 16 were prepared by Biosignal Company) using Scintillation Proximity Assay.
A binding buffer containing 50 mM Tris-HCl (pH 7.5), 5 mM MgCl2 and 1 mM EDTA was prepared immediately prior to performing the assay. A bead/membrane solution at twice the final assay concentration comprising membranes (membranes bought from Biosignal) from the HEK-293 cells cloned to express CRTH2 receptor bound to and [3H] PGD2 at twotimes the final assay concentration were prepared and stored on ice before adding to wells. Cold PGD2 at twenty times the final assay concentration was prepared and stored on ice before adding to wells defining non-specific binding (NSB) corning plates #3653 were used for this assay.
10 mM stock concentrations of compounds in 100% DMSO were prepared and stored at room temperature. A 10 point concentration response curve was then constructed for each compound, starting at 10 μM (final assay concentration). The compounds were prepared at 40 times final assay concentrations with nine consequent-3-fold dilutions.
0.1 μl of each concentration of compound were added to the appropriate well of the 384 plate and 2 μl of cold PGD2 was added into the wells defining NSB. 20 μl of [^3H] PGD2 and then 20 μl of 2× of bead/membrane solution were then added to each well.
The plates were allowed to incubate at room temperature for approximately 2 hours and then counted on Packard Topcount using SPA tritium protocol for 1 minute/well.
The percent inhibition of PGD2 binding (PGD2 used at the KD value or lower) to the HEK-293 cell membranes was determined, the assay was always run as duplicate for n=1 for a total of n=2.

As to `CCC(=O)N(c1ccc(Cl)cc1)[C@@H]1C[C@H](CN(CC)CC)N(C(=O)c2ccc(F)cc2)c2ccccc21` (racemic) [Compound B-106, (±)-Cis-N-(4-chloro-phenyl)-N-[2-diethylaminomethyl-1-(4-fluoro-benzoyl)-1,2,3,4-tetrahydro-quinolin-4-yl]-propionamide], the inhibition constant Ki was less than 10 µM.

The molecule `CCC(=O)N(c1ccccc1)[C@@H]1C[C@H](C)N(C(=O)c2ccnc(C)c2)c2ccccc21` (racemic) [Compound A-131, (±)-Cis-N-[2-methyl-1-(2-methyl-pyridine-4-carbonyl)-1,2,3,4-tetrahydro-quinolin-4-yl]-N-phenyl-propionamide] returned a Ki of less than 10 µM.

Regarding `COc1ccc(C(=O)N2c3ccccc3[C@H](N(C(C)=O)c3ccc(CCC(=O)O)cc3)C[C@@H]2C)cc1` [Compound D-6, (2S,4R)-3-(4-{Acetyl-[1-(4-methoxy-benzoyl)-2-methyl-1,2,3,4-tetrahydro-quinolin-4-yl]-amino}-phenyl)-propionic acid], the Ki was less than 10 µM.

`COc1cccc(C(=O)N2c3ccccc3[C@@H](N(C(C)=O)c3ccccc3)C[C@H]2C)c1` [Compound A-126, (2R,4S)-cis-N-[1-(3-methoxy-benzoyl)-2-methyl-1,2,3,4-tetrahydro-quinolin-4-yl]-N-phenyl-acetamide] had a Ki of less than 60 µM.

In turn, `CC(=O)N(c1ccccc1)[C@@H]1C[C@H](C)N(C(=O)c2cccn2C)c2ccccc21` (racemic) [Compound A-130, (±)-Cis-N-[2-methyl-1-(1-methyl-1H-pyrrole-2-carbonyl)-1,2,3,4-tetrahydro-quinolin-4-yl]-N-phenyl-acetamide] gave a Ki of less than 10 µM.

The molecule `CCOCCOc1ccc2c(c1)C(N(C(=O)CC)c1ccc(Cl)cc1)CC(C)N2C(=O)c1ccc(F)cc1` (centres unmarked) [Compound B-68] came in with a Ki of less than 10 µM.

On to `CCC(=O)N(c1ccc(Cl)cc1)[C@@H]1C[C@H](C)N(C(=O)c2ccc(F)cc2)c2ccc(OCCN(CC)CC)cc21` (racemic) [Compound B-63, (±)-Cis-N-(4-Chloro-phenyl)-N-[6-(2-diethylamino-ethoxy)-1-(4-fluoro-benzoyl)-2-methyl-1,2,3,4-tetrahydro-quinolin-4-yl]-propionamide], for which the Ki is less than 10 µM.

On to `CC(=O)N(c1ccccc1)C1CC(C)N(C(=O)c2ccc(F)cc2)c2ccccc21` (centres unmarked) [Compound A-53], for which the Ki is less than 60 µM.

`COc1ccc(C(=O)N2c3ccccc3[C@H](N(C(C)=O)c3cccc(CN)c3)C[C@@H]2C)cc1` [Compound C-38, (2S,4R)-N-(3-Aminomethyl-phenyl)-N-[1-(4-methoxy-benzoyl)-2-methyl-1,2,3,4-tetrahydro-quinolin-4-yl]-acetamide] gave a Ki of less than 10 µM.

Take `COc1cccc(C(=O)N2c3ccccc3[C@H](N(C(C)=O)C3CCCCC3)C[C@@H]2C)c1` (racemic) [Compound B-53, (±)-Cis-N-cyclohexyl-N-[1-(3-methoxy-benzoyl)-2-methyl-1,2,3,4-tetrahydro-quinolin-4-yl]-acetamide]: the inhibition constant Ki was less than 60 µM.

The molecule `CCC(=O)N(c1ccccc1)[C@@H]1C[C@H](C)N(C(=O)c2ccc(-c3ccc([N+](=O)[O-])cc3)o2)c2ccccc21` (racemic) [Compound A-144, (±)-Cis-N-{2-methyl-1-[5-(4-nitro-phenyl)-furan-2-carbonyl]-1,2,3,4-tetrahydro-quinolin-4-yl}-N-phenyl-propionamide] yielded a Ki of less than 10 µM.

Consider `COc1ccc(C(=O)N2c3ccccc3[C@H](N(C(C)=O)c3ccc(C(=O)O)cc3)C[C@@H]2C)cc1` [Compound C-37, (2S,4R)-4-{Acetyl-[1-(4-methoxy-benzoyl)-2-methyl-1,2,3,4-tetrahydro-quinolin-4-yl]-amino}-benzoic acid], for which the Ki is less than 10 µM.

In turn, `CC(=O)N(c1ccccc1)[C@H]1C[C@@H](C)N(C(=O)c2ccc(F)cc2)c2ccccc21` [Compound A-58] came in with an inhibition constant Ki of less than 60 µM.

Molecule `CC(=O)N(c1ccccc1)[C@@H]1C[C@H](C)N(C(=O)C2CCCCC2)c2ccccc21` (racemic) [Compound A-157, (±)-Cis-N-(1-cyclohexanecarbonyl-2-methyl-1,2,3,4-tetrahydro-quinolin-4-yl)-N-phenyl-acetamide] gave a Ki of less than 10 µM.

The molecule `COc1ccc(C(=O)N2c3ccccc3[C@H](N(C(C)=O)c3ccc(C(=O)CCC(=O)O)c(Cl)c3)C[C@@H]2C)cc1` [Compound D-2, (2S,4R)-4-(4-{Acetyl-[1-(4-methoxy-benzoyl)-2-methyl-1,2,3,4-tetrahydro-quinolin-4-yl]-amino}-2-chloro-phenyl)-4-oxo-butyric acid] yielded a Ki of less than 10 µM.

As for `CCN(CC)c1ccc(N(C(C)=O)[C@@H]2C[C@H](C)N(C(=O)c3ccc(N(C)C)cc3)c3cc(N(CC)CC)ccc32)cc1` (racemic) [Compound B-84, (±)-Cis-N-[7-diethylamino-1-(4-dimethylamino-benzoyl)-2-methyl-1,2,3,4-tetrahydro-quinolin-4-yl]-N-(4-diethylamino-phenyl)-acetamide], the Ki was less than 10 µM.

`CCC(=O)N(c1ccc(Cl)cc1)[C@@H]1C[C@H](C)N(C(=O)c2ccc(F)cc2)c2ccc(OCC(=O)O)cc21` (racemic) [Compound B-65, (±)-Cis-[4-[(4-chloro-phenyl)-propionyl-amino]-1-(4-fluoro-benzoyl)-2-methyl-1,2,3,4tetrahydro-quinolin-6-yloxy]-acetic acid] came in with a Ki of less than 10 µM.

`C[C@H]1C[C@@H](N(C(=O)CCc2ccccc2)c2ccccc2)c2ccccc2N1C(=O)c1ccc(F)cc1` (racemic) [Compound A-73, (±)-Cis-N-[1-(4-fluoro-benzoyl)-2-methyl-1,2,3,4-tetrahydro-quinolin-4-yl]-3,N-diphenyl-propionamide] gave a Ki of less than 10 µM.

Take `CCC(=O)N(c1ccc(C(F)(F)F)cc1)[C@@H]1C[C@H](C)N(C(=O)c2ccc(F)cc2)c2ccccc21` (racemic) [Compound B-13, (±)-Cis-N-[1-(4-Fluoro-benzoyl)-2-methyl-1,2,3,4-tetrahydro-quinolin-4-yl]-N-(4-trifluoromethyl-phenyl)-propionamide]: the Ki was less than 10 µM.

`CC(C)CC(=O)N(c1ccccc1)[C@@H]1C[C@H](C)N(C(=O)c2ccc(F)cc2)c2ccccc21` (racemic) [Compound A-132, (±)-Cis-N-[1-(4-fluoro-benzoyl)-2-methyl-1,2,3,4-tetrahydro-quinolin-4-yl]-3-methyl-N-phenyl-butyramide]: the Ki was less than 10 µM.

`CC(=O)N(c1ccccc1)[C@@H]1C[C@H](C)N(C(=O)c2sc(C)nc2C)c2ccccc21` (racemic) [Compound A-67, (±)-Cis-N-[1-(2,4-dimethyl-thiazole-5-carbonyl)-2-methyl-1,2,3,4-tetrahydro-quinolin-4-yl]-N-phenyl-acetamide] had a Ki of less than 10 µM.

`COc1cccc(C(=O)N2CCC(N(C(C)=O)c3ccccc3)c3ccccc32)c1` (centres unmarked) [Compound F-3, N-[1-(3-Methoxy-benzoyl)-1,2,3,4-tetrahydro-quinolin-4-yl]-N-phenyl-acetamide]: the Ki is less than 10 µM.

Take `CC(=O)N(C)CC(=O)N(c1ccccc1)[C@@H]1C[C@H](C)N(C(=O)c2ccc(F)cc2)c2ccccc21` (racemic) [Compound A-49, (±)-Cis-2-(acetyl-methyl-amino)-N-[1-(4-fluoro-benzoyl)-2-methyl-1,2,3,4-tetrahydro-quinolin-4-yl]-N-phenyl-acetamide]: the Ki is less than 10 µM.
